Test system: hematopoietic stem and/or progenitor cell engraftment
Assay: adult zebrafish whole kidney marrow competitive transplantation assay
Format: in vivo
Conditions: for engraftment signal in pilot screen of 10 bioactive compounds: by four weeks post transplant, 10 recipients per treatment; for average G/R / percentage of positive recipients: green marrow cells incubated in vitro for 4 hrs, mixed with red marrow 1:4, 4 wpt, compared with DMSO control; for engraftment: in vitro incubation of green marrow with 10 μM dmPGE2 or 0.5 μM BIO at room temperature for 2-4 hours, by 4 weeks post transplant
Text: A transparent adult zebrafish, casper, was used as a transplantation recipient. Casper is a double homozygous pigment mutant for the nacre allele (devoid of melanocytes) and the roy allele (devoid of iridophores and reduced melanoyctyes), which allows direct visualization of GFP labeled hematopoietic stem cell homing and engraftment without killing the recipients. Two marrows are used: Tg(β-actin:GFP) and Red GloFish® respectively to compete with each other at varying ratios e.g., 1:4, which can generate robust competition between the two donors. In one embodiment, the red marrow is the competitor, as well as an internal control for the transplant. At different timepoints post-transplant, the recipients are anesthetized and two pictures for each recipient are taken by a fluorescence stereomicroscope with GFP/DsRed filters individually. Images are analyzed by software, such as ImageJ, which can quantify the GFP/DsRed fluorescence intensity. The relative engraftment efficiency of the manipulated green marrow is measured by the ratio of the GFP intensity over the DsRed intensity within the same kidney region after background subtraction (labeled as G/R).
A double-color labeled competitive transplantation assay was developed, as shown by the flow chart in FIG. 1A. GFP+ and DsRed2+ marrow cells are isolated from Tg(β-actin:GFP) and commercially available Red GloFish®. The two donor populations are mixed at a certain ratio and injected into sublethally irradiated casper recipients retro-orbitally. The DsRed2+ marrow is used as the competitor. Four weeks later, the engraftment is visualized by fluorescence dissection scope. Pictures of GFP and DsRed engraftment are taken for each recipient and analyzed by ImageJ. The kidney region is manually selected and the average fluorescence intensities of both green and red are measured within the same region. The average background intensity is measured in a region outside the fish, and subtracted from the kidney intensity. The calculation of the relative engraftment is shown by the equation in FIG. 1B.
Adult zebrafish donors are anaesthetized with 0.2% tricaine before blood and kidney collection. Peripheral blood is obtained from adult casper by cardiac puncture with micropipette tips coated with heparin and collected into 0.9×PBS containing 5% FCS. About 3-5 million red blood cells are harvested from one donor. To dissect whole kidney marrow (WKM), a ventral midline incision is made on the donor fish. Whole kidney is dissected out and placed into ice-cold 0.9×PBS containing 5% FCS. Single-cell suspensions are generated by aspiration followed by filtering through a […] nylon mesh filter into a 50 ml conical tube. The flow-though part is diluted with a final volume of 25 ml and centrifuged at 1,500 rpm for 8 minutes. The supernatant is discarded and the pellet cells are resuspended in 1 ml 0.9×PBS containing 5% FCS. The number of viable cells are counted with a hemocytometer. […] Finally, the peripheral blood and kidney marrow cells are centrifuged at 1,500 rpm for 8 minutes, resuspended in 0.9×PBS containing 5% FCS and mixed at a certain ratio and concentration. Casper recipients are anesthetized in tricaine. 4 μl of the cell suspension mixture described above is injected into the circulation retro-orbitally through a Hamilton syringe (26 s gauge, 10 μl volume). […] Transplanted recipients can be anesthetized in tricaine and visualized over time on a Zeiss Discovery V8 stereomicroscope with a 1.2× PlanApo lens and GFP/DsRed filters. Images are captured using AxioVision software and for each recipient, two images are taken with GFP or DsRed filter respectively. The images are all saved in .tif format and analyzed using ImageJ software.

SMILES | score in the competitive transplant model (at 3 months) | score in the competitive transplant model (at 4 weeks) | engraftment signal in pilot screen of 10 bioactive compounds | average G/R | percentage of positive recipients | engraftment
CCCCC(C)(C)[C@H](O)/C=C/[C@H]1[C@H](O)CC(=O)[C@@H]1C/C=C\CCCC(=O)O [dmPGE2, 16-,16-dimethyl Prostaglandin E2] | score positive | score positive | enhanced signal above the rest of the chemicals tested | significantly increased | significantly increased | increase engraftment
O=C1Nc2cc(Br)ccc2C1=C1Nc2ccccc2C1=NO [BIO, 6-bromorindirubin-3′-oxime] | score positive | score positive | enhanced signal above the rest of the chemicals tested | significantly increased | significantly increased | increase engraftment

Reference: US10159697B2, “Methods for enhancing hematopoietic stem/progenitor cell engraftment” (CHILDREN'S MEDICAL CENTER CORPORATION, priority 2009, dated 2018)
